Data taken from US20090118332A1, “Therapeutic Agents - 551” (AstraZeneca AB, priority 2006, published 2009).

Target: T1, human Fatty Acid Synthase (Homo sapiens, UniProt P49327)
T1 construct: made in house
Test: Human FAS enzyme assay (decrease in NADPH fluorescence)
Format: biochemical
Settings: % inhibition at a concentration of 100 μmolar
Procedure, shortened: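 In-house human FAS was preincubated with compound and NADPH for 15 min at room temperature in 0.1 M Tris pH 7.5 with EDTA, glutathione and BSA. Malonyl CoA and acetyl CoA (500 μM and 150 μM in the added mix) were then added for 60 min. IC50 came from time-zero-subtracted NADPH fluorescence (340/460 nm).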

T1 sequence (P49327 whole entry): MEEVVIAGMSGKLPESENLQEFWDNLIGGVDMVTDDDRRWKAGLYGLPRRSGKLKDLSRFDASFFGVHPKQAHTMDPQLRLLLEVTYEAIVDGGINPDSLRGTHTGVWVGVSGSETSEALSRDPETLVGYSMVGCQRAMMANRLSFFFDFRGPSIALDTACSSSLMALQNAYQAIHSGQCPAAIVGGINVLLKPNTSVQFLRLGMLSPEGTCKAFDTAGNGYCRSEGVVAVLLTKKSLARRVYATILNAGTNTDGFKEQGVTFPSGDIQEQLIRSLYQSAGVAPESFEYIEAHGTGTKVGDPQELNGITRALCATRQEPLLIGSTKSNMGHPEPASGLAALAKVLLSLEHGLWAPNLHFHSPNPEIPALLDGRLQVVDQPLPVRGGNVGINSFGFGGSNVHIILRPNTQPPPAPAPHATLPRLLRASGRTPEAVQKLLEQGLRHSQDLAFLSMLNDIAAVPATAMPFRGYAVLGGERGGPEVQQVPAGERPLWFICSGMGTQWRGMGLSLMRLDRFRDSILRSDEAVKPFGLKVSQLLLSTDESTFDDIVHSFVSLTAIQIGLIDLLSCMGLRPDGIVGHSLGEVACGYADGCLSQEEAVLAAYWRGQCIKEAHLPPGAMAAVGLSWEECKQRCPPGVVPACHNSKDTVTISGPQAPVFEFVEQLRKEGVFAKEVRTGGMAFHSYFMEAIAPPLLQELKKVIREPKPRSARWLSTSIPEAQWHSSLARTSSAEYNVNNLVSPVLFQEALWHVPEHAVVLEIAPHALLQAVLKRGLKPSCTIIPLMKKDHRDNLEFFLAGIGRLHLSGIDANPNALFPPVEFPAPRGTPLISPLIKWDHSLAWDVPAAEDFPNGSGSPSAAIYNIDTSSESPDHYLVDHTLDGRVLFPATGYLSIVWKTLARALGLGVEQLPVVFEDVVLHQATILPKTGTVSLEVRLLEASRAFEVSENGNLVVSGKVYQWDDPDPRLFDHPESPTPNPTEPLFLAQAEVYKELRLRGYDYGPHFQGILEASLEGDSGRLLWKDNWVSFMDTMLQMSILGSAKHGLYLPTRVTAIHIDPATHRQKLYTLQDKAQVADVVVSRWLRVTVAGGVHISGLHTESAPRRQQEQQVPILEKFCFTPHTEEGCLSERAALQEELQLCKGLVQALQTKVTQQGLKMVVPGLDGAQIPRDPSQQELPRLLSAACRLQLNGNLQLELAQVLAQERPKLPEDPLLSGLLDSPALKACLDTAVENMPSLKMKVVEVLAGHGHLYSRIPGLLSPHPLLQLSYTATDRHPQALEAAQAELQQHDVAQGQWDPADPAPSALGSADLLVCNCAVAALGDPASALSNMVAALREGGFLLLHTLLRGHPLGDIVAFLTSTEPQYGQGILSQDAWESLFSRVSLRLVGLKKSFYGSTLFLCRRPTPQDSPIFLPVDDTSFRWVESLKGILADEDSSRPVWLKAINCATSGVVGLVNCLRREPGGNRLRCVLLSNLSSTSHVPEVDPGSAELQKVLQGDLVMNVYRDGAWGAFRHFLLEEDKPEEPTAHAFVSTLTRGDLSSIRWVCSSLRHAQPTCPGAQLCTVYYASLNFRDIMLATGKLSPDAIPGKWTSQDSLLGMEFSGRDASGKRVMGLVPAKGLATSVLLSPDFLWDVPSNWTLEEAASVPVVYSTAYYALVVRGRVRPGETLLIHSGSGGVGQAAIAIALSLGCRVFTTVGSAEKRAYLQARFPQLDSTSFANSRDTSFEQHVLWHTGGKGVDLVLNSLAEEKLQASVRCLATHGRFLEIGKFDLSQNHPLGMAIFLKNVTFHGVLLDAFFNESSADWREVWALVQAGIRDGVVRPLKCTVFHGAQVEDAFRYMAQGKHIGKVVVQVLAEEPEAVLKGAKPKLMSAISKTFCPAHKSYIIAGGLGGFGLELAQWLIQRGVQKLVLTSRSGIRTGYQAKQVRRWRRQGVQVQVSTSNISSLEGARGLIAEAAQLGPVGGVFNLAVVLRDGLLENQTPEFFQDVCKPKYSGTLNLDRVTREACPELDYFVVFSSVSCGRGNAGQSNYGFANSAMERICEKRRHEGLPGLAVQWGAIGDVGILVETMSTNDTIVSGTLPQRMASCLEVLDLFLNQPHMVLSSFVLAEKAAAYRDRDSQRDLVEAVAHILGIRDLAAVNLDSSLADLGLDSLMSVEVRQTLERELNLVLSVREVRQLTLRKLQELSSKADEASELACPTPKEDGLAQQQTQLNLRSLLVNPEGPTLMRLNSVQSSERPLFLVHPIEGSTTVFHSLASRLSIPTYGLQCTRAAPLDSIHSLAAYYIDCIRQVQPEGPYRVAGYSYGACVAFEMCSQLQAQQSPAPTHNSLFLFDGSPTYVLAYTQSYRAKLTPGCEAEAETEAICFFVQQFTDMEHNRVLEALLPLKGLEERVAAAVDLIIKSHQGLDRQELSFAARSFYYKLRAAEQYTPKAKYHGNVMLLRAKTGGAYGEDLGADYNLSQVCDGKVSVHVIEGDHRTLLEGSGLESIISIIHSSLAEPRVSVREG

Structure (SMILES)	inhibition at 100 µM [%]
Cc1ccc(C(=O)N2CCC(c3ccc(Cl)cc3)CC2)cc1NC(=O)NCc1ccccn1 [Example 355, 1-[5-[4-(4-chlorophenyl)piperidine-1-carbonyl]-2-methyl-phenyl]-3-(pyridin-2-ylmethyl)urea]	82.2
Cc1ccc(C(=O)N2CCC(c3ccc(C#N)cc3)CC2)cc1NC(=O)NCc1cnn(C)c1 [Example 356, 1-[5-[4-(4-cyanophenyl)piperidine-1-carbonyl]-2-methyl-phenyl]-3-[(1-methylpyrazol-4-yl)methyl]urea]	92.4
Cc1ccc(C(=O)N2CCC(c3ccc(C#N)cc3)CC2)cc1NC(=O)NC(C)c1ccncc1 (stereo not drawn) [Example 357, 1-[5-[4-(4-cyanophenyl)piperidine-1-carbonyl]-2-methyl-phenyl]-3-(1-pyridin-4-ylethyl)urea]	102
Cc1ccc(C(=O)N2CCC(c3ccc(C#N)cc3)CC2)cc1NC(=O)NCc1cccc(N2CCOCC2)n1 [Example 358, 1-[5-[4-(4-cyanophenyl)piperidine-1-carbonyl]-2-methyl-phenyl]-3-[(6-morpholin-4-ylpyridin-2-yl)methyl]urea]	93.2
Cc1ccc(C(=O)N2CCC(c3ccc(Cl)cc3)CC2)cc1NC(=O)NC(C)C [Example 359, 1-[5-[4-(4-chlorophenyl)piperidine-1-carbonyl]-2-methyl-phenyl]-3-propan-2-yl-urea]	92.1
Cc1ccc(C(=O)N2CCC(c3ccc(S(N)(=O)=O)cc3)CC2)cc1NC(=O)NC(C)C [Example 360, 1-[2-methyl-5-[4-(4-sulfamoylphenyl)piperidine-1-carbonyl]phenyl]-3-propan-2-yl-urea]	97.3
CNC(=O)Nc1cc(C(=O)N2CCC(c3ccc(C#N)cc3)CC2)ccc1C [Example 361, 1-[5-[4-(4-cyanophenyl)piperidine-1-carbonyl]-2-methyl-phenyl]-3-methyl-urea]	101
CSc1ccc(C(=O)N2CCC(c3ccc(C#N)cc3)CC2)cc1NC(=O)NC(C)C [Example 362, 3-[5-[4-(4-cyanophenyl)piperidine-1-carbonyl]-2-methylsulfanylphenyl]-1-propan-2-ylurea]	87.9
CSc1ccc(C(=O)N2CCC(c3ccc(C#N)cc3)CC2)cc1NC(=O)NCc1ccccc1 [Example 363, 3-benzyl-1-[5-[4-(4-cyanophenyl)piperidine-1-carbonyl]-2-methylsulfanylphenyl]urea]	84.7
CC(C)NC(=O)Nc1cc(C(=O)N2CCC(c3ccc(C#N)cc3)CC2)ccc1S(C)(=O)=O [Example 364, 3-[5-[4-(4-cyanophenyl)piperidine-1-carbonyl]-2-methylsulfonylphenyl]-1-propan-2-ylurea]	84.1
COCc1ccc(C(=O)N2CCC(c3ccc(C#N)cc3)CC2)cc1NC(=O)NC(C)C [Example 365, 3-[5-[4-(4-cyanophenyl)piperidine-1-carbonyl]-2-(methoxymethyl)phenyl]-1-propan-2-ylurea]	82.5
Cc1ccc(C(=O)N2CCC(c3ccc(C#N)cc3)CC2)cc1NC(N)=O [Example 366, [5-[4-(4-cyanophenyl)piperidine-1-carbonyl]-2-methylphenyl]urea]	101
Cc1ccc(C(=O)N2CCC(c3ccc(C#N)cc3)CC2)cc1NC(=O)NCc1ncc(F)cc1F [Example 367, 1-[5-[4-(4-cyanophenyl)piperidine-1-carbonyl]-2-methylphenyl]-3-[(3,5-difluoropyridin-2-yl)methyl]urea]	107
Cc1ccc(C(=O)N2CCC(c3ccc(C#N)cc3)CC2)cc1NC(=O)NC(C)c1ccccn1 (stereo not drawn) [Example 368, 1-[5-[4-(4-cyanophenyl)piperidine-1-carbonyl]-2-methylphenyl]-3-(1-pyridin-2-ylethyl)urea]	110
Cc1ccc(C(=O)N2CCC(c3ccc(C#N)cc3)CC2)cc1NC(=O)NC(Cc1ccc(F)cc1)C(=O)O (stereo not drawn) [Example 369, 2-[[5-[4-(4-cyanophenyl)piperidine-1-carbonyl]-2-methylphenyl]carbamoylamino]-3-(4-fluorophenyl)propanoic acid]	88.5
